For assay [1], the target named is T1, PfCRT^Dd2 in C4^Dd2 parasites (Plasmodium falciparum, UniProt Q8IBZ9, A220S/I356T/K76T/M74I/N326S/N75E/Q271E/R371I).
T1 construct: PfCRT also functions as a peptide transporter within its native environment of the DV membrane; expressed in transfected cells; host or cells: P. falciparum pfcrt transfectant line C4^Dd2 (saponin-isolated trophozoites)
T1 sequence (Q8IBZ9 1-424 M74I/N75E/K76T/A220S/Q271E/N326S/I356T/R371I): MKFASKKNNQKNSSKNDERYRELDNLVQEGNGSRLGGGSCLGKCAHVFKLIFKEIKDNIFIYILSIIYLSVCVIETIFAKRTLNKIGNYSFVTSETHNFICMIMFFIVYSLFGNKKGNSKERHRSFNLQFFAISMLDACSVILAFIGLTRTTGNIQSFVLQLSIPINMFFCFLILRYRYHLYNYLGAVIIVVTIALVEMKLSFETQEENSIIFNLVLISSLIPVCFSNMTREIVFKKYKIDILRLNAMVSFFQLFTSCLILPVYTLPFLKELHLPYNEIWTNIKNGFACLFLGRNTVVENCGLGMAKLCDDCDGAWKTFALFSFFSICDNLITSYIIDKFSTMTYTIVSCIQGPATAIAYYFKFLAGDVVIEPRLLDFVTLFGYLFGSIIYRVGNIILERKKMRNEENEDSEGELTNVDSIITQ
The assay is described as follows: P. falciparum H+-efflux assay (rate of DV alkalinisation after concanamycin A). The class given is cell-based. The note with it: C4Dd2; test solute 10 μM.

Assay [2] deals with T2, PfCRT^3D7 in C2^GC03 parasites (Plasmodium falciparum, UniProt Q8IBZ9).
T2 construct: PfCRT also functions as a peptide transporter within its native environment of the DV membrane; expressed in transfected cells; host or cells: P. falciparum pfcrt transfectant line C2^GC03 (saponin-isolated trophozoites)
T2 sequence (Q8IBZ9 1-424): T1 sequence (Q8IBZ9 1-424 M74I/N75E/K76T/A220S/Q271E/N326S/I356T/R371I) with I74M, E75N, T76K, S220A, E271Q, S326N, T356I, I371R
The assay is described as above. The class given is cell-based. The following applies: C2GC03; test solute 10 μM.

The target of assay [3] is T3, PfCRT^3D7 (Plasmodium falciparum, UniProt Q8IBZ9). Nature of the assay: cell-based. The class given is cell-based. The gist of the method:
(§1)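 Assay buffer ND96 (10 mM MES, 10 mM Tris-base) held at pH 5.5 to mimic vacuole lumen; uptake measured inward from this acidic medium over 1.5 h at 27.5 °C.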

The next assay addresses T4, PfNT1 (Plasmodium falciparum, UniProt Q8IDM6).
T4 construct: expressed in transfected cells; host or cells: Xenopus laevis oocytes (stage V-VI), cRNA-injected
The assay is described as follows: cell-based. The class given is cell-based. The following applies: […], read-out: Uptake of [3H]CQ (% PfCRTDd2 control), trans-stimulation, PfNT1; SEM. The gist of the method: (§2)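 Transport measured in Xenopus oocytes expressing the transporters, 1.5 h at 27.5 °C in ND96 pH 5.5 unless noted. For trans-stimulation, VF-6 injected in 25 nL ND96 at pH 5.0–7.0 or Na^+-free (choline) buffer; intracellular levels based on ~400 nL oocyte volume. Ten oocytes per treatment, ≥4 experiments.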

The target in assay [4] is T3, PfCRT^3D7. Nature of the assay: cell-based. The class given is cell-based. The following applies: SEM. The method, boiled down:
as §2

Assay [5] has as its system non-expressing oocytes. The assay is described as follows: cells. The class given is cell-based, Xenopus laevis. The note with it: Xenopus laevis, Oocyte. The gist of the method: as §1
For assay [6], the system named is PfCRT. Nature of the assay: Test of solutes as potential co-substrates for influx of VF-6 via PfCRT into the oocyte. The class given is cell-based, Plasmodium falciparum. The arrangement: key: X: Compounds that have been tested as potential co-substrates but are not required for influx of VF-6 via PfCRT into the oocyte. The following applies: X = tested.
Assay [7] relates to PfCRT. Nature of the assay: Potential co-substrates tested for influx of VF-6 via PfCRT into the oocyte. The class given is cell-based, Plasmodium falciparum. Also on record: key: X: Compounds that have been tested as potential co-substrates but are not required for influx of VF-6 via PfCRT into the oocyte.
Assay [8] has as its system PfCRT. Nature of the assay: Influx of VF-6 via PfCRT into the oocyte, solutes tested as potential co-substrates. Also on record: key: X: Compounds that have been tested as potential co-substrates but are not required for influx of VF-6 via PfCRT into the oocyte. The following applies: X marks the solute. The class given is cell-based, Plasmodium falciparum.
Assay [9] has as its system non-expressing oocytes. The class given is cell-based, Xenopus laevis. The following applies: SEM. The gist of the method: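 Oocytes (ten per treatment, ≥4 independent frogs/days) were preloaded by injecting VF-6 in 25 nL ND96 at pH 5.0, 5.5, 6.0 or 7.0, or Na^+-free choline buffer, then uptake run 1.5 h, 27.5 °C, ND96 pH 5.5 by default. Internal concentrations assumed ~400 nL oocyte volume.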

Another assay concerns the target PfCRT^Ecu1110 (Plasmodium falciparum, UniProt Q9N623, A220S/I356L/K76T/N326D). Nature of the assay: [3H]CQ uptake into Xenopus oocytes, cis-inhibition by unlabelled solute. The class given is cell-based. The method, boiled down: as §1
The target of another assay is PfCRT^Dd2 (Plasmodium falciparum, UniProt Q9N623, A220S/I356T/K76T/M74I/N326S/N75E/Q271E/R371I). The assay is described as above. The class given is cell-based. The gist of the method: as §1
The target in assay [10] is T5, PfCRT^7G8 in C6^7G8 parasites (Plasmodium falciparum, UniProt Q8IBZ9, A220S/C72S/I351M/I356L/K76T/N326D).
T5 construct: PfCRT also functions as a peptide transporter within its native environment of the DV membrane; expressed in transfected cells; host or cells: P. falciparum pfcrt transfectant line C6^7G8 (saponin-isolated trophozoites)
T5 sequence (Q8IBZ9 1-424 C72S/K76T/A220S/N326D/I351M/I356L): T1 sequence (Q8IBZ9 1-424 M74I/N75E/K76T/A220S/Q271E/N326S/I356T/R371I) with C72S, I74M, E75N, E271Q, S326D, I351M, T356L, I371R
Nature of the assay: P. falciparum H+-efflux assay (rate of DV alkalinisation after concanamycin A). The class given is cell-based. The note with it: C67G8; test solute 10 μM.

The mark [11] stands for this setting: read-out: Uptake of [3H]CQ (% PfCRTDd2 control), cis-inhibition, PfCRT3D7, SEM.
Setting [12] is: read-out: Uptake of [3H]CQ (% PfCRTDd2 control), cis-inhibition, non-expressing oocytes, SEM.
[13] abbreviates: read-out: Uptake of [3H]CQ (% non-expressing oocyte control), cis-inhibition.
Where [14] appears, read: read-out: PfCRT-mediated [3H]CQ transport, cis-inhibition (% PfCRTEcu1110 control).
[15] abbreviates: read-out: Uptake of [3H]CQ (% PfCRTDd2 control), cis-inhibition, PfCRTEcu1110, SEM.
Where [16] appears, read: read-out: Uptake of [3H]CQ (% PfCRTEcu1110 control), cis-inhibition.
[17] abbreviates: read-out: [3H]CQ transport (% PfCRTEcu1110 control), cis-inhibition, PfCRTEcu1110, SEM.
Where [18] appears, read: read-out: PfCRT-mediated [3H]CQ transport, cis-inhibition (% PfCRTDd2 control).

Positions count from the first letter of the chain named. Like-named read-outs stand apart in the source and are kept apart here.

T3 sequence (Q8IBZ9 59-398): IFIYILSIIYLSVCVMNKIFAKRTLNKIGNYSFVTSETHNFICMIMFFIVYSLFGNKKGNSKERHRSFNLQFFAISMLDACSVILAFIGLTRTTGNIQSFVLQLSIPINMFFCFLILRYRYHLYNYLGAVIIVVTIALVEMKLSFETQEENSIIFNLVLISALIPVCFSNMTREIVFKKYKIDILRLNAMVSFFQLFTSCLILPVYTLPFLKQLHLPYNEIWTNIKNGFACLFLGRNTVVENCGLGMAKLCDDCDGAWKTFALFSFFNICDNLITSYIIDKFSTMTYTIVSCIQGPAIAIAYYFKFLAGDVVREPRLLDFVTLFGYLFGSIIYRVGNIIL
Sequence of PfCRT^Ecu1110 (Q9N623 whole entry A220S/I356L/K76T/N326D): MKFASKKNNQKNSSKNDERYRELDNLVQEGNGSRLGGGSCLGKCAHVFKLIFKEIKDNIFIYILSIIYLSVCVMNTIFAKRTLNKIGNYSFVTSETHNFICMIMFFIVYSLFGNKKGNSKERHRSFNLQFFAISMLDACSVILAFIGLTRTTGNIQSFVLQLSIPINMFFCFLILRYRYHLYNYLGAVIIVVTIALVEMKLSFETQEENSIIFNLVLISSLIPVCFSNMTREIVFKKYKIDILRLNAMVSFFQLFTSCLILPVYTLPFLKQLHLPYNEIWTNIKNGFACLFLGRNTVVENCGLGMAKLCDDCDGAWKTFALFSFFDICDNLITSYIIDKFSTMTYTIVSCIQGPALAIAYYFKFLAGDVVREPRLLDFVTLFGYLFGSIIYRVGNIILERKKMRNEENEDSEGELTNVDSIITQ
T4 sequence (Q8IDM6 whole entry): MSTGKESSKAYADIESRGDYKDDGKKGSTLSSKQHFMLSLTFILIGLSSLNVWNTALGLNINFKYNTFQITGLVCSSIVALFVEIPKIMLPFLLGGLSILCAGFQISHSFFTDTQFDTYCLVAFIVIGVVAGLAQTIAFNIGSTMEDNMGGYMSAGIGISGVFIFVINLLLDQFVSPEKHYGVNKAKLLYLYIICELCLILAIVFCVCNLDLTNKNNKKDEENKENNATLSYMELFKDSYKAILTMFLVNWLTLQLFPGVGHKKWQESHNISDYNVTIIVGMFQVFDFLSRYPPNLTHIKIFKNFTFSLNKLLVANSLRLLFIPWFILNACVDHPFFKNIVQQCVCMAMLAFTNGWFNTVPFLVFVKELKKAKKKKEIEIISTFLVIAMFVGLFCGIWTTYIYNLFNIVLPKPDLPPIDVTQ

Regarding `CC(C)C[C@H](NC(=O)[C@H]1O[C@@H]1C(=O)O)C(=O)NCCCCN=C(N)N` [E-64], the figures for the “Effect on rate of DV alkalinisation / H+ leak (in words)” value in [1] and in assay [2] were “neither peptide exerted an effect” and “caused a H^+ leak”, respectively.

`O=C(O)[C@@H]1CCCN1` [L-proline]: the inhibition at 500 µM came to 99 ± 6.2% at PfCRT^3D7 [3] (read-out: Uptake of [3H]CQ (% PfCRT3D7 control), cis-inhibition); 2.3 ± 0.01% on PfCRT^3D7 [3] (setting [11]); 2.8 ± 0.09% in the assay with non-expressing oocytes [5] (setting [12]); 99 ± 3.3% in the assay on non-expressing oocytes [5] (setting [13]); 98 ± 4.6% on PfCRT^Ecu1110 (setting [14]); 33 ± 1.4% at PfCRT^Ecu1110 (setting [15]). Also, the inhibition at 500 µM is 100 ± 7.7% at PfCRT^Ecu1110 (setting [16]), 30 ± 1.4% at PfCRT^Ecu1110 (setting [17]) and 95 ± 4.2% on PfCRT^Dd2 (setting [18]). Also, the inhibition at 2000 µM on PfCRT^3D7 [3] (setting [11]) was determined as 2.6 ± 0.04%; in the assay with non-expressing oocytes [5] (setting [12]), 3.4 ± 0.07%; with non-expressing oocytes [5] (setting [13]), 97 ± 5.3%; on PfCRT^Ecu1110 (setting [14]) it was 95 ± 2.6%; at PfCRT^Ecu1110 (setting [15]), 32 ± 1.4%; on PfCRT^Ecu1110 (setting [16]), 96 ± 4.3%. Also, the inhibition at 2000 µM on PfCRT^Ecu1110 (setting [17]) amounted to 29 ± 1.4%. Besides, the activity at 5000 µM on PfNT1 was determined as 3.1 ± 0.08%. Moreover, at PfCRT^3D7 [4], the “[3H]CQ transport (% PfCRT3D7 control), trans-stimulation, PfCRT3D7” value came out at 0.2 ± 0.02 % PfCRT3D7 control. Besides, the inhibition at 1000 µM is 3.1 ± 0.03% in the assay on non-expressing oocytes [5] (setting [12]); 100 ± 3.5% with non-expressing oocytes [5] (setting [13]); 94 ± 3.6% on PfCRT^Ecu1110 (setting [14]); 31 ± 1.5% on PfCRT^Ecu1110 (setting [15]); 96 ± 8.1% at PfCRT^Ecu1110 (setting [16]); 28 ± 0.6% at PfCRT^Ecu1110 (setting [17]). Besides, the inhibition at 1000 µM was determined as 96 ± 3.2% at PfCRT^Dd2 (setting [18]) and 98 ± 4.8% on PfCRT^Dd2 (read-out: Uptake of [3H]CQ (% PfCRTDd2 control), cis-inhibition, PfCRTDd2, SEM). For the same compound, the “Tested as potential co-substrate but not required for influx of VF-6 via PfCRT into the oocyte” value in the assay with PfCRT [6] and with PfCRT [7] was “X” throughout. Besides, the “Compounds that have been tested as potential co-substrates but are not required for influx of VF-6 via PfCRT into the oocyte” value with PfCRT [8] is given as “X”. In addition, in the assay with non-expressing oocytes [9], the “Uptake of [3H]CQ (% PfCRTDd2 control), trans-stimulation, non-expressing oocytes” value was determined as 2.6 ± 0.08 % PfCRTDd2 control.

With `CC(=O)N[C@@H](CC(C)C)C(=O)N[C@@H](CC(C)C)C(=O)N[C@H](C=O)CCCNC(=N)N` [Leupeptin, leupeptin], the “Effect on rate of DV alkalinisation / H+ leak (in words)” value is recorded as “neither peptide exerted an effect” in assay [1], “caused a H^+ leak” in assay [2] and “induced a H^+ leak” in assay [10].

In the case of `Cc1cccc(C)c1OCC(=O)N[C@@H](Cc1ccccc1)[C@@H](O)C[C@H](Cc1ccccc1)NC(=O)[C@H](C(C)C)N1CCCNC1=O` [lopinavir], the “Effect on rate of DV alkalinisation / H+ leak (in words)” value in assay [1], in assay [2] and in assay [10] was “without effect” throughout.

As to `CC(C)c1nc(CN(C)C(=O)N[C@H](C(=O)N[C@@H](Cc2ccccc2)C[C@H](O)[C@H](Cc2ccccc2)NC(=O)OCc2cncs2)C(C)C)cs1` [ritonavir], the “Effect on rate of DV alkalinisation / H+ leak (in words)” value in [1], in [2] and in [10] was “without effect” each time.
